Here are results for 30 compounds from patent US10100022B2, “Sphingosine kinase inhibitors” (University of Virginia Patent Foundation, priority 2014, dated 2018).

In test [1] the target is T1, human sphingosine kinase type 1 (hSPHK1) (Homo sapiens, UniProt Q9NYA1).
T1 construct: made in house; host or cells: Sf9 insect cells (baculovirus)
In words: Sphingosine kinase assay, recombinant human SPHK1 ([32P]S1P product, scintillation counting). The format is biochemical. Particulars: read-out: activity hSPHK1 (range estimate of KI). How it is done:
(§1) Recombinant baculovirus encoding human sphingosine kinase type 1 (SPHK1) was used to infect Sf9 insect cells and after 2-5 days, cleared lysates were prepared and used without further purification. Human SPHK2, which was partially purified from baculovirus-infected Sf9 cell lysates, was purchased from a commercial source. Sphingosine kinase assays were performed using standard protocols. Product [^32P]S1P was recovered by binding to cation exchange paper and quantified by scintillation counting.

Test [2] concerns the target T2, human sphingosine kinase type 2 (hSPHK2) (Homo sapiens, UniProt Q9NRA0).
T2 construct: purchased; host or cells: Sf9 insect cells (baculovirus)
T2 sequence (Q9NRA0 1-654): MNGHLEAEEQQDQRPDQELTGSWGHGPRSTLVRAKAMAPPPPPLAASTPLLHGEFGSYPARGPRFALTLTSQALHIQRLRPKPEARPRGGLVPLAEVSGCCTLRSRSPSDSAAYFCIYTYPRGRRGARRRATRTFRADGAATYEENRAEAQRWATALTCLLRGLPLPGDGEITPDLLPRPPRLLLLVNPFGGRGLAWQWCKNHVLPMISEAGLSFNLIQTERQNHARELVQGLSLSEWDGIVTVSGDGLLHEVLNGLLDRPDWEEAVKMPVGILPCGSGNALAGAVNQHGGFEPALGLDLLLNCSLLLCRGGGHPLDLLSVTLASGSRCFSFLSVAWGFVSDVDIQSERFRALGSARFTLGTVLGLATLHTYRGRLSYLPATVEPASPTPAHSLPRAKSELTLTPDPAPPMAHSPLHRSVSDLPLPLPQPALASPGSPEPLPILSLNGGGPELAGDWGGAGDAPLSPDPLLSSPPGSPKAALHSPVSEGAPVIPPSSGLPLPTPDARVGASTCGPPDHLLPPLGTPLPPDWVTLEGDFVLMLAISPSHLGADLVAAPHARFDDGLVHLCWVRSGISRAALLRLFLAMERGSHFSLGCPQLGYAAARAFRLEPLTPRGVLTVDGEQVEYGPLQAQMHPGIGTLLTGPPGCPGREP
In words: Sphingosine kinase assay, recombinant human SPHK2 ([32P]S1P product, scintillation counting). Particulars: read-out: activity hSPHK2 (range estimate of KI). It counts as biochemical. As to the method:
as §1

Usually Ki stands for a measure of affinity in units of concentration, obtained from inhibition or displacement.

T1 sequence (Q9NYA1 whole entry): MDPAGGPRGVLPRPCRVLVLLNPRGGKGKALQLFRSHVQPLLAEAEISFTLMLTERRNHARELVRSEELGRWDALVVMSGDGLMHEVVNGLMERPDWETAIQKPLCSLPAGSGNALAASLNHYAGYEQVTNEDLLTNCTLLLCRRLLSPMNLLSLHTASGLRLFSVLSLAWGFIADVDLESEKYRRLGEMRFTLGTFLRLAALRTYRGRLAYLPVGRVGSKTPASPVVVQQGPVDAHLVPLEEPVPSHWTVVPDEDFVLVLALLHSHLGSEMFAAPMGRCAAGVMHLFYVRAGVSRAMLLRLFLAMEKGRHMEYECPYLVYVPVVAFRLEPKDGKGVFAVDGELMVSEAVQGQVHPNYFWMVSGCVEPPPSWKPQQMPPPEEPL

For `CCCCCCCn1cc(-c2noc([C@@H]3CCCN3C(=N)N)n2)c2ccccc21` [Compound 1A, (S)-amino(2-(3-(1-heptyl-1H-indol-3-yl)-1,2,4-oxadiazol-5-yl)pyrrolidin-1-yl)methaniminium chloride], the Ki in test [1] and in test [2] was > 10 µM in each case. Turning to `CCCCCCCCCOc1ccc(-c2noc([C@@H]3CCCN3C(=N)N)n2)cc1C(F)(F)F` [Compound 1B], the Ki is > 10 µM in test [1] and < 1 µM in test [2]. Consider `CCCCCCCCCn1cc(-c2noc([C@@H]3CCCN3C(=N)N)n2)c2ccccc21` [Compound 2A, (S)-amino(2-(3-(1-nonyl-1H-indol-3-yl)-1,2,4-oxadiazol-5-yl)pyrrolidin-1-yl)methaniminium chloride], for which the Ki in test [1] and in test [2] was > 10 µM in each case. For the compound `CCCCCCCCOc1ccc(-c2noc([C@@H]3CCCN3C(=N)N)n2)cc1C(F)(F)F` [Compound 2B], the inhibition constant (Ki) in test [1] is > 10 µM. Regarding `CCCCCCCCCCCCn1cc(-c2noc([C@@H]3CCCN3C(=N)N)n2)c2ccccc21` [Compound 3A, (S)-amino(2-(3-(1-dodecyl-1H-indol-3-yl)-1,2,4-oxadiazol-5-yl)pyrrolidin-1-yl)methaniminium chloride], the Ki in test [2] is < 1 µM. With `CCCCCCCCCc1ccc(-c2noc([C@@H]3CCCN3C(=N)N)n2)cc1C(F)(F)F` [Compound 3B], the values for the Ki in test [1] and in test [2] were > 10 µM and < 1 µM, respectively. As for `CCCCCCCCCCCn1cc(-c2noc([C@@H]3CCCN3C(=N)N)n2)c2ccccc21` [Compound 4A, (S)-amino(2-(3-(1-undecyl-1H-indol-3-yl)-1,2,4-oxadiazol-5-yl)pyrrolidin-1-yl)methaniminium chloride], the Ki in test [1] is > 10 µM; in test [2] it was 1 to 10 µM. For `CCCCCCCCOc1ccc(-c2noc([C@@H]3CCCN3C(=N)N)n2)cc1Br` [Compound 4B] the same measures were > 10 µM and < 1 µM. Turning to `CCCCCCCCc1ccc(-c2noc([C@@H]3CCCN3C(=N)N)n2)cc1C(F)(F)F` [Compound 5A, (S)-Amino(2-(3-(4-octyl-3-(trifluoromethyl)phenyl)-1,2,4-oxadiazol-5-yl)pyrrolidin-1-yl)methaniminium chloride], the figures for the Ki in test [1] and in test [2] were > 10 µM and < 1 µM, respectively. In the case of `CCCCCCCCOc1ccc(-c2nnc([C@@H]3CCCN3C(=N)N)s2)cc1C(F)(F)F` [Compound 5B], the values for the Ki in test [1] and in test [2] were > 10 µM and < 1 µM, respectively. For `CCCCCCCCOc1ccc(-c2noc([C@@H]3CCCN3C(=N)N)n2)cc1C` [Compound 6B] the same measures were > 10 µM and < 1 µM.

As for `CCCCCCCCCCn1cc(-c2noc([C@@H]3CCCN3C(=N)N)n2)c2ccccc21` [Compound 7A, (S)-amino(2-(3-(1-decyl-1H-indol-3-yl)-1,2,4-oxadiazol-5-yl)pyrrolidin-1-yl)methaniminium chloride], in test [2], the Ki was < 1 µM. Take `CCCCCCCCOc1c(C)cc(-c2noc([C@@H]3CCCN3C(=N)N)n2)cc1C` [Compound 7B]: the Ki in test [1] was > 10 µM; in test [2] it was < 1 µM. On to `CCCCCCCCOc1ccc(-c2noc([C@@H]3C[C@@H](O)CN3C(=N)N)n2)cc1C(F)(F)F` [Compound 8A, amino((2S,4R)-4-hydroxy-2-(3-(4-(octyloxy)-3-(trifluoromethyl)phenyl)-1,2,4-oxadiazol-5-yl)pyrrolidin-1-yl)methaniminium chloride], for which the Ki in test [1] is > 10 µM; in test [2], < 1 µM. As for `CCCCCCCn1ccc2c(-c3noc([C@@H]4CCCN4C(=N)N)n3)cccc21` [Compound 8B, (S)-amino(2-(3-(1-heptyl-1H-indol-4-yl)-1,2,4-oxadiazol-5-yl)pyrrolidin-1-yl)methaniminium chloride], the Ki in test [1] was > 10 µM; in test [2], < 1 µM. For `CCCCCCCCOc1ccc(-c2noc([C@@H]3C[C@H](O)CN3C(=N)N)n2)cc1C(F)(F)F` [Compound 9A, amino((2S,4S)-4-hydroxy-2-(3-(4-(octyloxy)-3-(trifluoromethyl)phenyl)-1,2,4-oxadiazol-5-yl)pyrrolidin-1-yl)methaniminium chloride] the same measures were > 10 µM and > 10 µM. `CCCCCCCCn1ccc2c(-c3noc([C@@H]4CCCN4C(=N)N)n3)cccc21` [Compound 9B, (S)-amino(2-(3-(1-octyl-1H-indol-4-yl)-1,2,4-oxadiazol-5-yl)pyrrolidin-1-yl)methaniminium chloride]: the values for the Ki in test [1] and in test [2] were > 10 µM and < 1 µM, respectively.

Consider `CCCCCCCCOc1ccc(-c2noc([C@@H]3[C@H](O)CCN3C(=N)N)n2)cc1C(F)(F)F` [Compound 10A, amino((2S,3R)-3-hydroxy-2-(3-(4-(octyloxy)-3-(trifluoromethyl)phenyl)-1,2,4-oxadiazol-5-yl)pyrrolidin-1-yl)methaniminium chloride], for which the Ki in test [1] and in test [2] was > 10 µM throughout. Take `CCCCCCCCCn1ccc2c(-c3noc([C@@H]4CCCN4C(=N)N)n3)cccc21` [Compound 10B, (S)-amino(2-(3-(1-nonyl-1H-indol-4-yl)-1,2,4-oxadiazol-5-yl)pyrrolidin-1-yl)methaniminium chloride]: the Ki in test [1] is > 10 µM; in test [2], < 1 µM. With `CCCCCCCCOc1ccc(-c2noc([C@@H]3CCCN3C(=N)N)n2)cc1F` [Compound 11A, (S)-Amino(2-(3-(3-fluoro-4-(octyloxy)phenyl)-1,2,4-oxadiazol-5-yl)pyrrolidin-1-yl)methaniminium chloride], the inhibition constant (Ki) in test [1] and in test [2] was > 10 µM each time. As for `CCCCCCCCCCn1ccc2c(-c3noc([C@@H]4CCCN4C(=N)N)n3)cccc21` [Compound 11B, (S)-amino(2-(3-(1-decyl-1H-indol-4-yl)-1,2,4-oxadiazol-5-yl)pyrrolidin-1-yl)methaniminium chloride], the Ki in test [1] was > 10 µM; in test [2], < 1 µM. On the same counts, the results for `CCCCCOc1ccc2cc(-c3noc([C@@H]4CCCN4C(=N)N)n3)ccc2c1` [Compound 12A, (S)-amino(2-(3-(6-(pentyloxy)naphthalen-2-yl)-1,2,4-oxadiazol-5-yl)pyrrolidin-1-yl)methaniminium chloride] are > 10 µM and > 10 µM. In the case of `CCCCCCOc1ccc(-c2noc([C@@H]3CCCN3C(=N)N)n2)cc1C(F)(F)F` [Compound 12B], the Ki in test [1] is 1 to 10 µM; in test [2], < 1 µM. As to `CCCCCCCOc1ccc2cc(-c3noc([C@@H]4CCCN4C(=N)N)n3)ccc2c1` [Compound 13A, (S)-amino(2-(3-(6-(heptyloxy)naphthalen-2-yl)-1,2,4-oxadiazol-5-yl)pyrrolidin-1-yl)methaniminium chloride], the Ki in test [1] is > 10 µM; in test [2], 1 to 10 µM.

As to `CCCCCCCCOc1ccc(-c2noc([C@@H]3CCN3C(=N)N)n2)cc1C(F)(F)F` [Compound 13B], the Ki in test [1] is 1 to 10 µM; in test [2], < 1 µM. Consider `CC(C)COc1ccc2cc(-c3noc([C@@H]4CCCN4C(=N)N)n3)ccc2c1` [Compound 14A, (S)-amino(2-(3-(6-isobutoxynaphthalen-2-yl)-1,2,4-oxadiazol-5-yl)pyrrolidin-1-yl)methaniminium chloride], for which the Ki in test [1] and in test [2] was > 10 µM each time. As for `CCCCCOc1ccc2cc(-c3noc([C@@H]4[C@@H](O)CCN4C(=N)N)n3)ccc2c1` [Compound 14B, Amino((2S,3S)-3-hydroxy-2-(3-(6-(pentyloxy)naphthalen-2-yl)-1,2,4-oxadiazol-5-yl)pyrrolidin-1-yl)methaniminium chloride], the inhibition constant Ki in test [1] and in test [2] was < 1 µM in each case. For the compound `N=C(N)N1CCC[C@H]1c1nc(-c2ccc3cc(OCc4ccc(C(F)(F)F)cc4)ccc3c2)no1` [Compound 52A, (S)-amino(2-(3-(6-((4-(trifluoromethyl)benzyl)oxy)naphthalen-2-yl)-1,2,4-oxadiazol-5-yl)pyrrolidin-1-yl)methaniminium chloride], the Ki in test [2] was 1 to 10 µM. Regarding `CCCCOc1ccc2cc(-c3noc([C@@H]4CCCN4C(=N)N)n3)ccc2c1` [Compound 56A, (S)-amino(2-(3-(6-(butyloxy)naphthalen-2-yl)-1,2,4-oxadiazol-5-yl)pyrrolidin-1-yl)methaniminium chloride], the Ki in test [2] is 1 to 10 µM.

On to `CC1(C)CCC(C)(C)c2cc(COc3ccc4cc(-c5noc([C@@H]6CCCN6C(=N)N)n5)ccc4c3)ccc21` [Compound 71A, (S)-amino(2-(3-(6-((5,5,8,8-tetramethyl-5,6,7,8-tetrahydronaphthalen-2-yl)methoxy)naphthalen-2-yl)-1,2,4-oxadiazol-5-yl)pyrrolidin-1-yl)methaniminium chloride], for which the Ki in test [2] is > 10 µM.
